Source: patent publication US20260070945A1, “MACROCYCLIC IMMUNOMODULATORS” (Bristol-Myers Squibb Company, priority 2022, published 2026)
Where a SMILES comes first, the peptide text is derived from it. Bridges are numbered along the chain shown (N, C = ends). [ ]: non-standard residue; d: D form. The star is where a group is joined. Phe(4-COOH) = N[C@@H](Cc1ccc(C(=O)O)cc1)C(=O)O; Bip = N[C@@H](Cc1ccc(-c2ccccc2)cc1)C(=O)O; NH(CH2)14COOH = O=C(O)CCCCCCCCCCCCCCN*; Phe(3-Me) = Cc1cccc(C[C@H](N)C(=O)O)c1; NH(CH2)12COOH = O=C(O)CCCCCCCCCCCCN*; Val(3-OH) = CC(C)(O)[C@H](N)C(=O)O; hArg = N=C(N)NCCCC[C@H](N)C(=O)O; 4Pal = N[C@@H](Cc1ccncc1)C(=O)O; Cha = N[C@@H](CC1CCCCC1)C(=O)O; Carboxymethyl = O=C(O)C*; NMeA = CN[C@@H](C)C(=O)O; Dab = NCC[C@H](N)C(=O)O; AEEA = NCCOCCOCC(=O)O

molecular target: T1, PD-1/PD-L1 interaction (PE-labeled human PD-L1-Ig binding to Jurkat cell line over-expressing human PD-1) (Homo sapiens, UniProt Q15116); test: Jurkat-PD-1 Cell Binding High-Content Screening Assay (CBA); conditions: Jurkat-hPD-1 cells, PE-labeled PD-L1-Ig 20 nM final; read-out: Jurkat HPD1 PDL1 IC50
T1 construct: expressed in transfected cells; host or cells: Jurkat
T1 sequence (Q15116 25-288): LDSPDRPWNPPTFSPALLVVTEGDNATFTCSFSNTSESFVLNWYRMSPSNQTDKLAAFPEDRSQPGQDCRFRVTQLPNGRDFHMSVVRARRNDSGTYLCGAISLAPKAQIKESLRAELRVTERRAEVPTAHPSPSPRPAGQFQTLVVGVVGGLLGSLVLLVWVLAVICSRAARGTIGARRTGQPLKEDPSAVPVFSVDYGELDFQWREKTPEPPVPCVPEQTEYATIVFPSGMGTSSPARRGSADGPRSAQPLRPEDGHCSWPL
In short: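 Jurkat-hPD-1 cells (8×10^3/well) in DMEM with 10% fetal calf serum were preincubated with compound for 2 h at 37 °C. PE-labeled PD-L1-Ig was then added at 20 nM final for 1 h. Cells were fixed in paraformaldehyde with Hoechst 33342, washed and imaged by high-content imaging.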

Row | IC50 [nM] | Compound
1 | 123 | CC(C)C[C@@H]1NC(=O)[C@H](Cc2c[nH]c3ccccc23)NC(=O)[C@H](CC(=O)O)NC(=O)[C@H](Cc2ccc(C(=O)O)cc2)NC(=O)[C@H](CCCCNC(=N)N)NC(=O)CSC[C@@H](C(=O)N[C@@H](C)C(=O)N[C@@H](CCN)C(=O)NCCCCCCCCCCCCCCC(=O)O)NC(=O)[C@H](CO)NC(=O)[C@H](C(C)C)NC(=O)[C@H](CC2CCCCC2)NC(=O)[C@H](CCN)NC(=O)[C@@H](CC(C)C)NC(=O)[C@H](C)N(C)C(=O)[C@H](C(C)C)NC(=O)[C@H](Cc2ccc(-c3ccccc3)cc2)NC1=O [Example 2001] ({CH2CO}-[hArg][Phe(4-COOH)]DWL[Bip]V[NMeA][dL][Dab][Cha]VSCA[Dab]-{NH(CH2)14COOH}; thioether N-14)
2 | 65.4 | CC(C)C[C@@H]1NC(=O)[C@H](Cc2c[nH]c3ccccc23)NC(=O)[C@H](CC(=O)O)NC(=O)[C@H](Cc2ccc(OCC(=O)O)cc2)NC(=O)[C@H](CCCCNC(=N)N)NC(=O)CSC[C@@H](C(=O)N[C@@H](C)C(=O)N[C@@H](CCN)C(=O)NCCCCCCCCCCCCCCC(=O)O)NC(=O)[C@H](CO)NC(=O)[C@H](C(C)C)NC(=O)[C@H](CC2CCCCC2)NC(=O)[C@H](CCN)NC(=O)[C@@H](CC(C)C)NC(=O)[C@H](C)N(C)C(=O)[C@H](C(C)C)NC(=O)[C@H](Cc2ccc(-c3ccccc3)cc2)NC1=O [Example 2002] ({CH2CO}-[hArg]Y(Carboxymethyl)DWL[Bip]V[NMeA][dL][Dab][Cha]VSCA[Dab]-{NH(CH2)14COOH}; thioether N-14)

The next lines start with the molecule.

Row | Compound | IC50 [nM]
3 | Cc1cccc(C[C@@H]2NC(=O)[C@H](CC(=O)O)NC(=O)[C@H](Cc3ccc(C(=O)O)cc3)NC(=O)[C@H](Cc3ccncc3)NC(=O)CSC[C@@H](C(=O)N[C@@H](CCN)C(=O)NCCOCCOCC(=O)NCCCCCCCCCCCCC(=O)O)NC(=O)[C@H](CO)NC(=O)[C@H](C(C)(C)O)NC(=O)[C@H](CC3CCCCC3)NC(=O)[C@H](CCN)NC(=O)[C@@H](CC(C)C)NC(=O)[C@H](C)N(C)C(=O)[C@H](Cc3ccc(OCC(=O)O)cc3)NC(=O)[C@H](Cc3ccc(-c4ccccc4)cc3)NC(=O)[C@H](Cc3ccc(OCC(=O)O)cc3)NC2=O)c1 [Example 1434] ({CH2CO}-[4Pal][Phe(4-COOH)]D[Phe(3-Me)]Y(Carboxymethyl)[Bip]Y(Carboxymethyl)[NMeA][dL][Dab][Cha][Val(3-OH)]SC[Dab][AEEA]-{NH(CH2)12COOH}; thioether N-14) | 915
4 | CC(C)C[C@@H]1NC(=O)[C@H](Cc2c[nH]c3ccccc23)NC(=O)[C@H](CC(=O)O)NC(=O)[C@H](Cc2ccc(OCC(=O)O)cc2)NC(=O)[C@H](CCCCNC(=N)N)NC(=O)CSC[C@@H](C(=O)N[C@@H](C)C(=O)N[C@@H](CCCCN)C(=O)NCCCCCCCCCCCCCCC(=O)O)NC(=O)[C@H](CO)NC(=O)[C@H](C(C)C)NC(=O)[C@H](CC(C)C)NC(=O)[C@H](Cc2c[nH]cn2)NC(=O)[C@@H](CC(C)C)NC(=O)[C@H](C)N(C)C(=O)[C@H](C(C)C)NC(=O)[C@H](Cc2ccc(-c3ccccc3)cc2)NC1=O [Example 2003] ({CH2CO}-[hArg]Y(Carboxymethyl)DWL[Bip]V[NMeA][dL]HLVSCAK-{NH(CH2)14COOH}; thioether N-14) | 290
5 | CC(C)C[C@H]1NC(=O)[C@H](C)N(C)C(=O)[C@H](C(C)C)NC(=O)[C@H](Cc2ccc(-c3ccccc3)cc2)NC(=O)[C@H](C(C)C)NC(=O)[C@H](Cc2c[nH]c3ccccc23)NC(=O)[C@H](CC(=O)O)NC(=O)[C@H](Cc2ccc(C(=O)O)cc2)NC(=O)[C@H](Cc2ccncc2)NC(=O)CSC[C@@H](C(=O)N[C@@H](CCN)C(=O)NCCCCCCCCCCCCCCC(=O)O)NC(=O)[C@H](CO)NC(=O)[C@H](C(C)C)NC(=O)[C@H](CC2CCCCC2)NC(=O)[C@H](CCN)NC1=O [Example 2004] ({CH2CO}-[4Pal][Phe(4-COOH)]DWV[Bip]V[NMeA][dL][Dab][Cha]VSC[Dab]-{NH(CH2)14COOH}; thioether N-14) | 181
